Test results taken from patent publication US20160130278A1 (TAISHO PHARMACEUTICAL CO., LTD, priority 2013, published 2016).

Each molecule was assayed against T1, human type 1 glycine transporter (GlyT1) (Homo sapiens, UniProt P48067) (assay: Glycine uptake inhibition experiment ([3H]glycine uptake)). Details: GlyT1.
T1 construct: T98G cells (glioma cells) expressing human type 1 glycine transporter (GlyT1) were used
T1 sequence (P48067 1-706): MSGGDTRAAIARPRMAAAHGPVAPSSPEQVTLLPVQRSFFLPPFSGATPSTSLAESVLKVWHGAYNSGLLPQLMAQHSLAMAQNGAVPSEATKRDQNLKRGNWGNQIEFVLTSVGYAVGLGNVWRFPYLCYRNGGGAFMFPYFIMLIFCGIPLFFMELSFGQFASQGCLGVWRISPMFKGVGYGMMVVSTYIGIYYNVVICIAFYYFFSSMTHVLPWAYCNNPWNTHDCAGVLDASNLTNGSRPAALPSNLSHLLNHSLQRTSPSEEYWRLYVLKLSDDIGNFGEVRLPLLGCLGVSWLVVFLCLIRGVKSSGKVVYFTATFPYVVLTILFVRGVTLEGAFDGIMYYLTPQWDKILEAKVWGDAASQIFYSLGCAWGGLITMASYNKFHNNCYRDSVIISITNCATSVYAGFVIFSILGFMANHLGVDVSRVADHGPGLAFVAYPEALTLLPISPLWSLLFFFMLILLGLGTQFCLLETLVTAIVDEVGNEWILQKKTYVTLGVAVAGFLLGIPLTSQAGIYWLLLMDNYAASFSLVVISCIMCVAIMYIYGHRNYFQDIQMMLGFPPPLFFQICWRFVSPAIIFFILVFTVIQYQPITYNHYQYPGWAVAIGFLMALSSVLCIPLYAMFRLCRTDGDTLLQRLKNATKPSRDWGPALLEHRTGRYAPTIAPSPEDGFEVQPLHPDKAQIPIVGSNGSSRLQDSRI
Format: cell-based
Method in brief: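 T98G glioma cells expressing human GlyT1 were pretreated 10 min with compound in HEPES buffer pH 7.4 (0.2% BSA), then incubated with compound plus 250 nM final [3H]glycine for 15 min at room temperature. Intracellular radioactivity was counted after NaOH lysis; 10 μM ALX5407 defined non-specific uptake. IC50 came from 10^−9–10^−5 M curves.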

| Structure (SMILES) | IC50 [nM] |
| --- | --- |
| CCn1cc(-c2cccc(C(NC(=O)c3c(Cl)cccc3Cl)C3(O)CCC(F)(F)CC3)c2)cn1 (centres unmarked) [Compound 174, 2,6-dichloro-N-{(4,4-difluoro-1-hydroxycyclohexyl)[3-(1-ethyl-1H-pyrazol-4-yl)phenyl]methyl}benzamide] | 1100 |
| CCn1cc(-c2cccc(C(NC(=O)c3ccc(Cl)c(Cl)c3)C3(O)CCC(F)(F)CC3)c2)cn1 (centres unmarked) [Compound 175, 3,4-dichloro-N-{(4,4-difluoro-1-hydroxycyclohexyl)[3-(1-ethyl-1H-pyrazol-4-yl)phenyl]methyl}benzamide] | 4000 |
| CCn1cc(-c2cccc(C(NC(=O)c3c(Cl)cc(Cl)cc3Cl)C3(O)CCC(F)(F)CC3)c2)cn1 (centres unmarked) [Compound 176, 2,4,6-trichloro-N-{(4,4-difluoro-1-hydroxycyclohexyl)[3-(1-ethyl-1H-pyrazol-4-yl)phenyl]methyl}benzamide] | 1000 |
| CCn1cc(-c2cccc(C(NC(=O)c3cccc(C(F)(F)F)c3F)C3(O)CCC(F)(F)CC3)c2)cn1 (centres unmarked) [Compound 181, N-[(4,4-difluoro-1-hydroxycyclohexyl)[3-(1-ethyl-1H-pyrazol-4-yl)phenyl]methyl}-2-fluoro-3-(trifluoromethyl)benzamide] | 1500 |
| CCn1cc(-c2cccc(C(NC(=O)c3c(Cl)ccc(OC)c3F)C3(O)CCC(F)(F)CC3)c2)cn1 (centres unmarked) [Compound 183, 6-chloro-N-{(4,4-difluoro-1-hydroxycyclohexyl)[3-(1-ethyl-1H-pyrazol-4-yl)phenyl]methyl}-2-fluoro-3-methoxybenzamide] | 2000 |
| CCn1cc(-c2cccc(C(NC(=O)c3ccc(Cl)cc3Cl)C3(O)CCC(F)(F)CC3)c2)cn1 (centres unmarked) [Compound 191, 2,4-dichloro-N-{(4,4-difluoro-1-hydroxycyclohexyl)[3-(1-ethyl-1H-pyrazol-4-yl)phenyl]methyl}benzamide] | 1300 |
| CCn1cc(-c2cccc(C(NC(=O)c3cc(C(F)(F)F)cnc3Cl)C3(O)CCC(F)(F)CC3)c2)cn1 (centres unmarked) [Compound 202, 2-chloro-N-{(4,4-difluoro-1-hydroxycyclohexyl)[3-(1-ethyl-1H-pyrazol-4-yl)phenyl]methyl}-5-(trifluoromethyl)pyridine-3-carboxamide] | 900 |
| CCn1cc(-c2cccc(C(NC(=O)c3ccccc3Cl)C3(O)CCC(F)(F)CC3)c2)cn1 (centres unmarked) [Compound 205, 2-chloro-N-[(4,4-difluoro-1-hydroxycyclohexyl)[3-(1-ethyl-1H-pyrazol-4-yl)phenyl]methyl}benzamide] | 1900 |
| CCn1cc(-c2cccc(C(NC(=O)c3ncc(Cl)cc3C(F)(F)F)C3(O)CCC(F)(F)CC3)c2)cn1 (centres unmarked) [Compound 206, 5-chloro-N-{(4,4-difluoro-1-hydroxycyclohexyl)[3-(1-ethyl-1H-pyrazol-4-yl)phenyl]methyl}-3-(trifluoromethyl)pyridine-2-carboxamide] | 8700 |
| CCn1cc(-c2cccc(C(NC(=O)c3cccc(OC)c3Cl)C3(O)CCC(F)(F)CC3)c2)cn1 (centres unmarked) [Compound 207, 2-chloro-N-{(4,4-difluoro-1-hydroxycyclohexyl)[3-(1-ethyl-1H-pyrazol-4-yl)phenyl]methyl}-3-methoxybenzamide] | 8800 |
| CCn1cc(-c2cccc(C(NC(=O)c3cccc(Cl)c3C(F)(F)F)C3(O)CCC(F)(F)CC3)c2)cn1 (centres unmarked) [Compound 208, 3-chloro-N-{(4,4-difluoro-1-hydroxycyclohexyl)[3-(1-ethyl-1H-pyrazol-4-yl)phenyl]methyl}-2-(trifluoromethyl)benzamide] | 1300 |
| CCn1cc(-c2cccc(C(NC(=O)c3cccc(F)c3Cl)C3(O)CCC(F)(F)CC3)c2)cn1 (centres unmarked) [Compound 209, 2-chloro-N-{(4,4-difluoro-1-hydroxycyclohexyl)[3-(1-ethyl-1H-pyrazol-4-yl)phenyl]methyl}-3-fluorobenzamide] | 1200 |

Stronger by IC50, values ahead:

| IC50 [nM] | Structure (SMILES) |
| --- | --- |
| 610 | CCn1cc(-c2cccc(C(NC(=O)c3cc(C(F)(F)F)ccc3C)C3(O)CCC(F)(F)CC3)c2)cn1 (centres unmarked) [Compound 179, N-{(4,4-difluoro-1-hydroxycyclohexyl)[3-(1-ethyl-1H-pyrazol-4-yl)phenyl]methyl}-2-methyl-5-(trifluoromethyl)benzamide] |
| 210 | CCn1cc(-c2cccc(C(NC(=O)c3cc(C(F)(F)F)ccc3Cl)C3(O)CCC(F)(F)CC3)c2)cn1 (centres unmarked) [Compound 180, 2-chloro-N-{(4,4-difluoro-1-hydroxycyclohexyl)[3-(1-ethyl-1H-pyrazol-4-yl)phenyl]methyl}-5-(trifluoromethyl)benzamide] |
| 580 | CCn1cc(-c2cccc(C(NC(=O)c3c(Cl)ccc(Cl)c3OC)C3(O)CCC(F)(F)CC3)c2)cn1 (centres unmarked) [Compound 182, 3,6-dichloro-N-[(4,4-difluoro-1-hydroxycyclohexyl)[3-(1-ethyl-1H-pyrazol-4-yl)phenyl]methyl}-2-methoxybenzamide] |
| 860 | CCn1cc(-c2cccc(C(NC(=O)c3ccc(C(F)(F)F)cc3C)C3(O)CCC(F)(F)CC3)c2)cn1 (centres unmarked) [Compound 184, N-{(4,4-difluoro-1-hydroxycyclohexyl)[3-(1-ethyl-1H-pyrazol-4-yl)phenyl]methyl}2-methyl-4-(trifluoromethyl)benzamide] |
| 150 | O=C(N[C@@H](c1cccc(Cl)c1)[C@]1(O)CC[C@@H](F)CC1)c1ccnc(C(F)(F)F)c1Cl [Compound 186, 3-chloro-N-[(S)-(3-chlorophenyl)(cis-4-fluoro-1-hydroxycyclohexyl)methyl]-2-(trifluoromethyl)pyridine-4-carboxamide] |
| 210 | O=C(N[C@@H](c1cccc(Cl)c1)[C@]1(O)CC[C@H](F)CC1)c1nccc(C(F)(F)F)c1Cl [Compound 187, 3-chloro-N-[(S)-(3-chlorophenyl)(trans-4-fluoro-1-hydroxycyclohexyl)methyl]-4-(trifluoromethyl)pyridine-2-carboxamide] |
| 340 | CCn1cc(-c2cccc(C(NC(=O)c3ccc(F)cc3C(F)(F)F)C3(O)CCC(F)(F)CC3)c2)cn1 (centres unmarked) [Compound 192, N-{(4,4-difluoro-1-hydroxycyclohexyl)[3-(1-ethyl-1H-pyraozl-4-yl)phenyl]methyl}-4-fluoro-2-(trifluoromethyl)benzamide] |
| 730 | CCn1cc(-c2cccc(C(NC(=O)c3cc(Cl)ccc3C(F)(F)F)C3(O)CCC(F)(F)CC3)c2)cn1 (centres unmarked) [Compound 203, 5-chloro-N-{(4,4-difluoro-1-hydroxycyclohexyl)[3-(1-ethyl-1H-pyrazol-4-yl)phenyl]methyl}-2-(trifluoromethyl)benzamide] |
| 84 | O=C(NC(c1cccc(Cl)c1)C1(O)CCCCC1)c1nccc(C(F)(F)F)c1Cl (centres unmarked) [Compound 212, 3-chloro-N-[(3-chlorophenyl)(1-hydroxycyclohexyl)methyl]-4-(trifluoromethyl)pyridine-2-carboxamide] |
| 510 | O=C(N[C@@H](c1cccc(Cl)c1)[C@]1(O)CC[C@@H](F)CC1)c1cc(C(F)(F)F)ncc1Cl [Compound 227, 5-chloro-N-[(S)-(3-chlorophenyl)(cis-4-fluoro-1-hydroxycyclohexyl)methyl]-2-(trifluoromethyl)pyridine-4-carboxamide] |
| 21 | O=C(NC(c1cccc(Cl)n1)C1(O)CCCC1)c1nccc(C(F)(F)F)c1Cl (centres unmarked) [Compound 383, 3-chloro-N-[(6-chloropyridin-2-yl)(1-hydroxycyclopentyl)methyl]-4-(trifluoromethyl)pyridine-2-carboxamide] |
